From US20080015236A1, “METHOD FOR PROMOTING MYOCARDIAL REGENERATION AND USES THEREOF” (priority 2006, published 2008)
“Also recorded” adds a separate entry of the source.

Test system: region of myocardium that includes a myocardial infarction
Assay: Occlusion of the left anterior descending artery (myocardial infarction) in rats, daily intraperitoneal GM284, survival and histological analysis
Format: in vivo, Sprague Dawley rats
Description: The left anterior descending artery (“LAD”) of 36 male adult Sprague Dawley rats weighing between 250 and 270 grams was occluded by placement of a ligature around the LAD and pulling it taught. The ligature was left in place to create a chronic ischemic area (myocardial infarction) distal to the occlusion. Following the closure of the chest and evacuation of the extra-pulmonary air to reverse the surgery-induced pneumothorax, the rats were returned to their cages for recovery, where they had ad libitum access to water and food for the duration of the experiment. Immediately following surgery the rats received the analgesic Buprenex at a dose of 1.5 mg/kg subcutaneously every 12 hours for the first 72 hours, and then on an as-needed basis.
The GM284 was dissolved to a final concentration of 5 mg/kg in phosphate buffered saline (“PBS”); 10 μM stock solution of GM284 in dimethyl sulfoxide (“DMSO”) was diluted in PBS. The vehicle was 250 μl of DMSO into 10 ml PBS.
Postsurgically, the rats were randomly assigned into six (6) experimental groups (A through F) with 6 animals in each group (n=36). “Vehicle” groups A, C and E received daily intraperitoneal injections of vehicle; and, “treatment” groups B, D, and F were treated with intraperitoneal injections of GM284.
Animals in treatment groups B, D, and F received daily intraperitoneal injections of GM284 at 5 mg/kg; and, animals in vehicle groups A, C and E received daily intraperitoneal injections of only the vehicle in which the GM284 was dissolved.
Animals in vehicle group A and treatment group B were treated for 2 weeks after LAD ligation and sacrificed.
Animals in vehicle group C and treatment group D were treated for 2 weeks following LAD ligation. Thereafter, the vehicle or GM284 injections were withdrawn and the animals were allowed to survive for an additional 2 weeks prior to sacrifice.
Animals in vehicle group E treatment group F were treated daily for 30 days following LAD ligation and then sacrificed.
Prior to sacrifice, the animals were anesthetized the hearts were harvested and processed for histological analysis by submersion-fixing in 4% paraformaldehyde at 4° C. overnight, followed by dehydration and embedding in paraffin. Eight-micra tissue sections were cut through the infarcted area and stained with H&E and trichrome. The histological sections were viewed by light microscopy, by a reviewer blind to the treatment groups, and evaluated for: • 1) the size of the infarct; • 2) the presence of viable cardiac myocytes; and, • 3) the extent of collateral vascularity.

[1] = two weeks after LAD occlusion, daily GM284 5 mg/kg i.p., versus vehicle, FIG. 2b

Question: For `CCC(C)(C)C(=O)C(=O)N1CCC[C@H]1c1nnc([C@@H]2CCCN2C(=O)C(=O)C(C)(C)CC)o1` [GM284], which “scarring / fibrosis (trichrome stain)” value (four weeks after LAD occlusion, daily treatment (group F), vehicle: extensive area of infarction, FIG. 3a) is on record?
Answer: The value was “virtually no scarring; also recorded: minimal fibrosis”.

Question: And the “cardiac histology (H&E stain)” value (four weeks after LAD occlusion, daily treatment (group F), vehicle: extensive fibrosis, FIG. 3c)?
Answer: Its value is “normal cardiac histology”.

Question: And the “histological appearance of the cardiac tissue after withdrawal of treatment” value (treated two weeks, survived additional two weeks without treatment (group D), compared with animals analyzed at cessation of treatment)?
Answer: Its value is “did not significantly alter the histological appearance”.

Question: What about the “survival over the length of the study” value (treatment groups B, D, F, 5 mg/kg daily intraperitoneal after LAD ligation, vehicle group mortality 25%) of the same compound?
Answer: The value was 100%.

Question: And the “intramural vascularity (histology)” value [1]?
Answer: Its value is “increase in the intramural vascularity”.

Question: And the “viable myocardial cells (histology)” value [1]?
Answer: The value was “increase in viable myocardial cells”.

Question: What about the “extent of collateral vascularity (histology)” value (two weeks after LAD occlusion, daily GM284 5 mg/kg i.p., rare in vehicle treated tissue, FIG. 2b) of the same compound?
Answer: The value was “numerous collateral vessels”.
